Measured values published in US20250034159A1, “INHIBITORS OF EPIDERMAL GROWTH FACTOR RECEPTOR” (ORIC Pharmaceuticals, Inc., priority 2021, published 2025).
Like-named read-outs stand apart in the source and are kept apart here.

Assays:
Ba/F3_EGFR WT cells = assay: Biological Activity Assay D: BaF3 cell proliferation assay, EGFR wild-type (BaF3 WT); assay type: cell-based; conditions: Ba/F3 EGFR, read-out: BaF3 WT IC50
Method: (§1) One frozen vial of cells should be thawed into one T25 flask in 10 mL media. Keep the flask upright in the incubator.
(§2) Method: One frozen vial of cells was thawed into one T25 flask in 10 mL media and the flask was kept upright in the incubator. Cells were split 1:10 every two to three days when cells reached confluency of around 1×10^6 cells/mL. Bravo protocol files were used with Greiner 384-well plates for all steps of compound preparation, cell plating and compound addition. […] 16 μL of DMSO were added (for compounds starting at 20 μM) or 28 μL DMSO (for compounds starting at 5 μM) to 96-well V-bottom polypropylene plate: wells 1A-1H (8 compounds/plate). […] 20 μL DMSO were added to the remainder of the wells (columns 2-12) in the 96-well V-bottom plate. A Bravo liquid handler was used to make 1:3 serial dilutions from columns 1 to 11 (12 remains as DMSO only) to prepare the DMSO dilution plate. 144 μL media were added to each well of a new 96-well V-bottom polypropylene plate to prepare the intermediate dilution plate. A Bravo or 96-head Integra liquid handler was used to add and mix 6 μL of test compound from the DMSO dilution plate to the intermediate dilution plate. (1:25 dilution). Cells were transferred from a flask into a 50 mL conical, vortex gently and the number of cells were counted, with a target cell number of about 1×10^6 cells per mL. The cells were diluted in culture medium in 50 mL conical or T25 flask, and the cell suspension was added to BRAVO reservoir and then use Bravo protocol to plate the appropriate number of cells shown below in 36 μl of medium per well as follows: Ba/F3-WT-EGFR 2000 cells per well of a 384 well plate; Ba/F3-LR/CS-EGFR 2000 cells per well of a 384 well plate; and Ba/F3-d19/CS-EGFR 1500 cells per well of a 384 well plate. An extra 10 mL of dead volume was utilized in each reservoir.
(§3) Using a Bravo liquid handler, 4 μl of test compound solution was added per well from the intermediate dilution plate to plated cells (1:10 dilution from the intermediate plate, final compound dilution 1:250 and final DMSO concentration per well is 0.4%). Using the 96 BRAVO Head, 25 μl were aspirated from the intermediate dilution plate and 4 μl each were dispensed into 4 wells (square pattern) in the 384-well plate. Any remaining test compound is dispensed into a secondary plate to prevent cross contamination of cells in the intermediate compound plate. After the compounds were added, the plate was shaken at 600 rpm gently for 60 see, and the plates were incubated in a tissue culture incubator, 37° C., 5% CO2, for ˜ 72 hours. After incubation, CTG 2.0 reagent was allowed to equilibrate to room temperature (˜3 hours) and cells to reach room temperature (˜10-15 minutes) and reagent was added to cells (40 μL/well) using a Bravo liquid handler. The plates were shaken to allow proper mixing (˜5 min) and let settle for 10 minutes and were read on Tecan plate reader using the appropriate luminescence method. Data from plate reader was transferred to an excel file and entered directly into Dotmatics using the protocols under EGFR Project/Cell Proliferation/named: “BaF3_EGFRwt_CP”, “BaF3_EGFR_d19/CS_CP”, “BaF3_EGFR_LR/CS_CP”. Curves were fit with a 4-parameter model and IC50s calculated by the Dotmatics software. DMSO wells were averaged to define the high control (100% growth). The average of the highest concentration of the positive control compound (afatinib) was used to define the 0% growth and used to lock the bottom of the curves. The tops of the curves were not fixed.

[1] = target: recombinant human EGFR exon 19 deletion/C797S double mutant protein (Homo sapiens (Human), UniProt P00533, C797S/DEL746-750); assay: Biological Activity Assay C: biochemical assay against EGFR exon 19 deletion/C797S protein (EGFR d19/CS)
recombinant human EGFR exon 19 deletion/C797S double mutant protein, sequence (P00533 other isoform, or with tags, fused parts or gaps C797S/del 1-668/del 746-750 limits assumed): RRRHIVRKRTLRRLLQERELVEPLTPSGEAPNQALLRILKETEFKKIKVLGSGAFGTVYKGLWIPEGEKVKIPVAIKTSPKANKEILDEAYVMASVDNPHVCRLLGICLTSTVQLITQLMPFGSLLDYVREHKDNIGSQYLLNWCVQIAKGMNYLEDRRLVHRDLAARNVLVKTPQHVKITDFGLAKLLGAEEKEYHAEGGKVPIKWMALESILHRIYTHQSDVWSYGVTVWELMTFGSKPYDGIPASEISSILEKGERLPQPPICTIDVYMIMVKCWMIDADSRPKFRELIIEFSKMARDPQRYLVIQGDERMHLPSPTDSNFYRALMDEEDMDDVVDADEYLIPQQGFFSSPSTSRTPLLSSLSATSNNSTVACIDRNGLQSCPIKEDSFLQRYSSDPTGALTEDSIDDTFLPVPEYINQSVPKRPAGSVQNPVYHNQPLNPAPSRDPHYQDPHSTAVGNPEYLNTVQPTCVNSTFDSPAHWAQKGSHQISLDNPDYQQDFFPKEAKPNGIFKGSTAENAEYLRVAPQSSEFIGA
Method: In Row A of a 384-well polypropylene plate, was added 48 μL of DMSO. In wells A1 and A24, were added 12 μL of DMSO. […] To a well in Row A were added 12 μL of each 10 mM test compound stock (100% DMSO). […] The final intermediate dilution plate contained 4×16-point compound serial dilutions in assay buffer. The DMSO concentration was 10%. The intermediate compound dilution plate was transferred to the Bravo and the “5 uL dispense into ARP.pro” protocol was run. To the black low volume assay ready plates, were added 5 μL of 40 uM Phosphosens peptide sensor/4 mM ATP working solution to each well. […] To column 24, was added 10 μL of assay buffer. The final DMSO concentration was 2.5%. […] The plates were sealed with the TopSeal-A Plus plate seals. […] Set for 90 cycles with 120 second interval. […] The slope of each curve was constructed using Dotmatics in each well, and each IC50s was calculated using a 4-parameter fit model.

BaF3_EGFR LR/CS cells = assay: Biological Activity Assay D: BaF3 cell proliferation assay, EGFR L858R/C797S mutant (BaF3 LR/CS); assay type: cell-based; conditions: Ba/F3 EGFR, read-out: BaF3 LR/CS IC50
Method: as §1, §2, §3

BaF3_EGFR d19/CS cells = assay: Biological Activity Assay D: BaF3 cell proliferation assay, EGFR exon 19 deletion/C797S (BaF3 d19/CS); assay type: cell-based; conditions: Ba/F3 EGFR, read-out: BaF3 d19/CS IC50
Method: as §1, §2, §3

[2] = Ba/F3_EGFR WT cells, ~72 hours, CellTiter-Glo
[3] = BaF3_EGFR LR/CS cells, ~72 hours, CellTiter-Glo
[4] = BaF3_EGFR d19/CS cells, ~72 hours, CellTiter-Glo

| Compound | IC50 (Ba/F3_EGFR WT cells; [2]) | IC50 [1] | IC50 (BaF3_EGFR LR/CS cells; [3]) | IC50 (BaF3_EGFR d19/CS cells; [4]) | IC50 (Ba/F3_EGFR WT cells; 72 h) | IC50 (BaF3_EGFR LR/CS cells; 72 h) | IC50 (BaF3_EGFR d19/CS cells; 72 h) |
| --- | --- | --- | --- | --- | --- | --- | --- |
| Fc1ccc(-c2nn(C3CCCOC3)cc2-c2ncnc3oc(-c4ccccc4)cc23)cc1 (racemic) [Example 122, 4-(3-(4-Fluorophenyl)-1-(tetrahydro-2H-pyran-3-yl)-1H-pyrazol-4-yl)-6-phenylfuro[2,3-d]pyrimidine] | 1850 nM | 0.55 nM | 68 nM | 114 nM |  |  |  |
| O=S1(=O)CCC[C@H](Cn2cc(-c3ncnc4oc(-c5ccccc5)cc34)c(-c3ccc(F)cc3)n2)C1 (single isomer, unassigned) [Example 125] | 741 nM | 0.21 nM | 11.8 nM | 52.1 nM |  |  |  |
| O=S1(=O)CCC[C@@H](Cn2cc(-c3ncnc4oc(-c5ccccc5)cc34)c(-c3ccc(F)cc3)n2)C1 (single isomer, unassigned) [Example 126] | 720 nM | 0.18 nM | 14.6 nM | 58.2 nM |  |  |  |
| Fc1ccc(-n2nccc2-c2ccnc3[nH]c(-c4ccccc4)cc23)cc1 [Example 1, 4-[1-(4-fluorophenyl)-1H-pyrazol-5-yl]-2-phenyl-1H-pyrrolo[2,3-b]pyridine] | 2570 nM |  | 349 nM | 211 nM |  |  |  |
| OCCCc1nc(-c2ccnc3[nH]c(-c4ccccc4)cc23)n(-c2ccc(F)cc2)n1 [Example 2, 3-[1-(4-Fluorophenyl)-5-(2-phenyl-1H-pyrrolo[2,3-b]pyridin-4-yl)-1H-1,2,4-triazol-3-yl]propan-1-ol] | 724 nM |  | 89.5 nM | 104 nM |  |  |  |
| OCCCn1cc(-c2ccnc3cc(-c4ccccc4)[nH]c23)c(-c2ccc(F)cc2)n1 [Example 7, 3-[3-(4-Fluorophenyl)-4-(2-phenyl-1H-pyrrolo[3,2-b]pyridin-7-yl)-1H-pyrazol-1-yl]propan-1-ol] | 4710 nM |  | 694 nM | 508 nM |  |  |  |
| [2H]C([2H])([2H])n1cc(-c2ncnc3oc(-c4ccccc4)cc23)c(-c2ccc(F)cc2)n1 [Example 48, 4-[3-(4-Fluorophenyl)-1-(2H3)methyl-1H-pyrazol-4-yl]-6-phenylfuro[2,3-d]pyrimidine] |  |  |  |  | 2210 nM | 60.4 nM | 47.9 nM |
| Cn1cc(-c2ncnc3oc(-c4ccccc4)cc23)c(-c2ccc(F)cc2)n1 [Example 63, 4-[3-(4-Fluorophenyl)-1-methyl-1H-pyrazol-4-yl]-6-phenylfuro[2,3-d]pyrimidine] |  |  |  |  | 1270 nM | 35.4 nM | 48.5 nM |
| O=S1(=O)CCC(n2cc(-c3ncnc4oc(-c5ccccc5)cc34)c(-c3ccc(F)cc3)n2)CC1 [Example 83, 4-[3-(4-fluorophenyl)-4-(6-phenylfuro[2,3-d]pyrimidin-4-yl)-1H-pyrazol-1-yl]-1λ6-thiane-1,1-dione] | > 20000 nM |  | 529 nM | 640 nM |  |  |  |

Continued, in another order:

| IC50 (Ba/F3_EGFR WT cells; [2]) | IC50 [1] | IC50 (BaF3_EGFR LR/CS cells; [3]) | IC50 (BaF3_EGFR d19/CS cells; [4]) | Compound | IC50 (Ba/F3_EGFR WT cells; 72 h) | IC50 (BaF3_EGFR LR/CS cells; 72 h) | IC50 (BaF3_EGFR d19/CS cells; 72 h) |
| --- | --- | --- | --- | --- | --- | --- | --- |
| 1870 nM | 1.45 nM | 16.1 nM | 68.1 nM | Fc1ccc(-c2nn([C@H]3CCOC[C@@H]3F)cc2-c2ncnc3oc(-c4ccccc4)cc23)cc1 (racemic) [Example 151, 4-[1-(3-fluorooxan-4-yl)-3-(4-fluorophenyl)-1H-pyrazol-4-yl]-6-phenylfuro[2,3-d]pyrimidine] |  |  |  |
| 1770 nM | 0.26 nM | 30.7 nM | 57.6 nM | Fc1ccc(-c2nn([C@H]3CCOC[C@H]3F)cc2-c2ncnc3oc(-c4ccccc4)cc23)cc1 (racemic) [Example 184, 4-[1-(3-fluorooxan-4-yl)-3-(4-fluorophenyl)-1H-pyrazol-4-yl]-6-phenylfuro[2,3-d]pyrimidine] |  |  |  |
| 6980 nM | 1.43 nM | 256 nM | 395 nM | CS(=O)(=O)[C@@H]1CC[C@H](n2cc(-c3ncnc4oc(-c5ccccc5)cc34)c(-c3ccc(F)cc3)n2)C1 (racemic) [Example 185, 4-{3-(4-fluorophenyl)-1-[3-(methanesulfonyl)cyclopentyl]-1H-pyrazol-4-yl}-6-phenylfuro[2,3-d]pyrimidine] |  |  |  |
| 3340 nM | 0.92 nM | 85.4 nM | 294 nM | C[C@@H]1OCC[C@H]1n1cc(-c2ncnc3oc(-c4ccccc4)cc23)c(-c2ccc(F)cc2)n1 (racemic) [Example 199, 2,5-anhydro-1,3,4-trideoxy-3-[3-(4-fluorophenyl)-4-(6-phenylfuro[2,3-d]pyrimidin-4-yl)-1H-pyrazol-1-yl]pentitol] |  |  |  |
| 2670 nM | 0.63 nM | 53.3 nM | 42.3 nM | CC1(C)CC(n2cc(-c3ncnc4oc(-c5ccccc5)cc34)c(-c3ccc(F)cc3)n2)CO1 (racemic) [Example 227, 4-[1-(5,5-dimethyloxolan-3-yl)-3-(4-fluorophenyl)-1H-pyrazol-4-yl]-6-phenylfuro[2,3-d]pyrimidine] |  |  |  |
| 1740 nM | 0.41 nM | 105 nM | 125 nM | CC(=O)N1CC[C@@H](n2cc(-c3ncnc4oc(-c5ccccc5)cc34)c(-c3ccc(F)cc3)n2)C1 (single isomer, unassigned) [Example 128] |  |  |  |
| 1610 nM | 0.2 nM | 66.6 nM | 107 nM | CC(=O)N1CC[C@H](n2cc(-c3ncnc4oc(-c5ccccc5)cc34)c(-c3ccc(F)cc3)n2)C1 (single isomer, unassigned) [Example 129] |  |  |  |
| 3050 nM | 0.97 nM | 81.5 nM | 127 nM | Fc1ccc(-c2nn([C@@H]3CCCOC3)cc2-c2ncnc3oc(-c4ccccc4)cc23)cc1 (single isomer, unassigned) [Example 136] |  |  |  |
| 1610 nM |  | 33.6 nM | 89.6 nM | Fc1ccc(-c2nn(CCOC(F)(F)F)cc2-c2ncnc3oc(-c4ccccc4)cc23)cc1 [Example 144, 4-{3-(4-Fluorophenyl)-1-[2-(trifluoromethoxy)ethyl]-1H-pyrazol-4-yl}-6-phenylfuro[2,3-d]pyrimidine] |  |  |  |
| 1590 nM |  | 15.2 nM | 40.8 nM | Fc1ccc(-c2nn(CCC(F)F)cc2-c2ccnc3oc(-c4ccccc4)cc23)cc1 [Example 157, 4-[1-(3,3-difluoropropyl)-3-(4-fluorophenyl)-1H-pyrazol-4-yl]-2-phenylfuro[2,3-b]pyridine] |  |  |  |
| 1590 nM |  | 42 nM | 56.4 nM | O=S1(=O)CC(n2cc(-c3ncnc4oc(C5=CCN(S(=O)(=O)C6CC6)CC5)cc34)c(-c3ccc(F)cc3)n2)C1 [Example 177, 3-[4-{6-[1-(cyclopropanesulfonyl)-1,2,3,6-tetrahydropyridin-4-yl]furo[2,3-d]pyrimidin-4-yl}-3-(4-fluorophenyl)-1H-pyrazol-1-yl]-1λ6-thietane-1,1-dione] |  |  |  |
